In US20260345717A1, “COMPOSITION FOR PREVENTING, AMELIORATING, OR TREATING ALZHEIMER'S DISEASE COMPRISING GRAPEVINE STEM EXTRACT OR COMPOUND ISOLATED THEREFROM AS EFFECTIVE COMPONENT” (KOREA INSTITUTE OF ORIENTAL MEDICINE, priority 2022, published 2026):

Key:
[1] = system: U373-MG cells infected with herpes simplex virus (HSV-1); experiment: Cell survival of HSV-1 infected U373-MG cells, MTT assay; format: cell-based, human; settings: compared to untreated group (control), FIG. 5A; for viability at 10 µM: Homo sapiens, 18 h, read-out: cell survival rate
Protocol: (§1) U373-MG cells, a human-derived glioblastoma, were cultured in RPMI1640 medium supplemented with 10% FBS (Fetal bovine serum) and 1% penicillin/streptomycin. After culturing, the cells were infected with herpes simplex virus (HSV-1, 0.1 MOI) in RPMI1640 medium supplemented with 1% penicillin/streptomycin. After 2 hours, the infection solution was removed. After washing with PBS, the cells were treated for 18 hours with a sample in RPMI1640 supplemented with 10% FBS and 1% penicillin/streptomycin. […] Cell survival rate was expressed as cell survival rate compared to the untreated group (control).

[2] = system: gB protein of the herpes simplex virus; experiment: gB viral protein expression in HSV-1 infected U373-MG cells, Western blot; format: cell-based, herpes simplex virus (HSV-1); settings: 10 μM, FIG. 5B, 1080 min
[3] = system: herpes simplex virus (HSV-1) in Vero cells; experiment: Antiviral effect: HSV-1 (GFP) infection of Vero cells, flow cytometry; format: cell-based; settings: for inhibition at 10 µM / inhibition at 5 µM: Human alphaherpesvirus 1, Vero, 18 h, read-out: inhibition rate of virus replication; for antiviral effect compared with other components of the extract: FIG. 2
Protocol: Vero cells were cultured in DMEM medium supplemented with 10% fetal bovine serum (FBS) and 1% penicillin/streptomycin. After culturing, the cells were infected with herpes simplex virus (HSV-1, 0.1 MOI) for 2 hours in DMEM medium supplemented with 1% penicillin/streptomycin. The infection solution was removed, the cells were washed with PBS and then treated with the samples from Preparation example 1 at different concentrations in DMEM supplemented with 10% FBS and 1% penicillin/streptomycin. The cells were subsequently cultured for 18 hours. Afterwards, the cells were recovered, fixed with 4% paraformaldehyde, washed with PBS, and GFP of the virus was quantified using flow cytometry. The cell infection rate was expressed as the infection rate compared to the group (Virus) that had not been treated with any sample.
In addition, the antiviral effect of the components contained in the grapevine stem extract obtained in Preparation example 2, i.e., vitisin A, &-viniferin, caraphenol A, betuin, cis-vitisin A, ampelopsin A, lupeol, vitisin B, malibatol A, viniferether B, lupenone, and resveratrol, was also determined by conducting experiments in the same manner as above.

[4] = system: herpes simplex virus protein ICP27; experiment: ICP27 viral protein expression in HSV-1 infected U373-MG cells; format: cell-based, herpes simplex virus (HSV-1); settings: concentration not restated
amyloid beta (Aβ1-42) = experiment: Amyloid beta (Aβ1-42) expression in HSV-1 infected U373-MG cells, Western blot; format: cell-based, human; settings: 10 μM, FIGS. 10A and 10B
Protocol: as §1
(§2) The experiment was conducted in the same manner as the cell experiment in Example 3, but vitisin A, cis-vitisin A, and vitisin B isolated from grapevine stem extract were treated as test samples, and cell proteins were isolated to determine the expression of proteins that are related to dementia.

[5] = system: herpes simplex virus protein VP16; experiment: VP16 viral protein expression in HSV-1 infected U373-MG cells; format: cell-based, herpes simplex virus (HSV-1); settings: concentration not restated
tau protein (p-tau) = experiment: Phosphorylation of tau protein (p-tau) in HSV-1 infected U373-MG cells, Western blot; format: cell-based, human; settings: 10 μM, FIGS. 10A and 10B
Protocol: as §1, §2

## cis-vitisin A
[1]; 10 μM, 1080 min
  cell survival rate: 84%
[2]
  reduction of gB protein compared to the virus-infected group: 27%

## C=C(C)[C@@H]1CC[C@]2(C)CC[C@]3(C)[C@H](CC[C@@H]4[C@@]5(C)CC[C@H](O)C(C)(C)[C@@H]5CC[C@]43C)[C@@H]12 (single isomer, unassigned) [lupeol]
[3]
  inhibition at 10 µM: 59%

## Oc1ccc([C@H]2Oc3cc(O)cc(/C=C/c4ccc5c(c4)[C@@H](c4cc(O)cc6c4[C@H](c4cc(O)cc(O)c4)[C@@H](c4ccc(O)cc4)O6)[C@H](c4ccc(O)cc4)O5)c3[C@@H]2c2cc(O)cc(O)c2)cc1 [vitisin B]
[1]
  viability at 10 µM: 76%
[3]
  inhibition at 5 µM: 80%
  inhibition at 10 µM: 76%
[3]; Vero cells
  antiviral effect compared with other components of the extract: best antiviral effect
[2]
  reduction of gB protein compared to the virus-infected group: 66%

## Oc1ccc(-c2oc3cc(O)cc4c3c2-c2cc(O)cc3c2[C@H](c2cc(O)cc5c2[C@@H]4[C@H](c2ccc(O)cc2)O5)[C@@H](c2ccc(O)cc2)O3)cc1 [caraphenol A]
[3]
  inhibition at 10 µM: 41%

## Oc1ccc(C=Cc2cc(O)cc(O)c2)cc1 (single isomer, unassigned) [Resveratrol, resveratrol]
[3]; Vero cells, HSV-1 0.1 MOI, 18 hours, concentration not restated in this sentence
  inhibition of viral infection: 67%

## Oc1ccc(/C=C/c2cc(O)cc3c2C(c2cc(O)cc(O)c2)C(c2ccc(O)cc2)O3)cc1 (stereo not drawn) [ε-viniferin]
[3]
  inhibition at 10 µM: 42%

## Oc1ccc([C@H]2c3c(O)cc(O)cc3[C@H]3c4c(cc(O)cc4[C@@H]2c2cc(/C=C/c4cc(O)cc5c4[C@H](c4cc(O)cc(O)c4)[C@@H](c4ccc(O)cc4)O5)ccc2O)O[C@@H]3c2ccc(O)cc2)cc1 [vitisin A]
[4]
  inhibition rate against ICP27 compared to the virus-infected group: 93%
[1]
  viability at 10 µM: 87%
[3]
  inhibition at 5 µM: 80%
  inhibition at 10 µM: 96%
[3]; Vero cells
  antiviral effect compared with other components of the extract: best antiviral effect
Amyloid beta (Aβ1-42)
  expression of amyloid beta (Aβ1-42) compared to the virus-infected group: significantly reduced
[5]
  inhibition rate against VP16 compared to the virus-infected group: 100%
Tau protein (p-tau)
  phosphorylation of tau protein (p-tau) compared to the virus-infected group: significantly reduced
[2]
  reduction of gB protein compared to the virus-infected group: 99%

## Oc1ccc([C@H]2c3c(O)cc(O)cc3[C@H]3c4c(cc(O)cc4[C@@H]2O)O[C@@H]3c2ccc(O)cc2)cc1 [amphelopsin A, ampelopsin A]
[3]
  inhibition at 10 µM: 54%
